Experimental data from PubChem BioAssay (NCI).
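In this assay, cells in 96-well plates receive the compound at five concentrations for 48 hours. Endpoints are linearly interpolated between the surrounding concentrations. GI50 = concentration required for 50% inhibition of growth. TGI: total growth inhibition.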

Assays:
Assay in all cases: NCI anticancer screen, dose series, 48 h
[1] = system: SNB-75 CNS
[2] = system: SK-OV-3 ovarian
[3] = system: IGROV1 ovarian
[4] = system: HT29 colon
[5] = system: MDA-MB-435
[6] = system: SW-620 colon
[7] = system: HOP-62 NSCLC
[8] = system: UO-31 renal
[9] = system: DU-145 prostate
[10] = system: U251 CNS
[11] = system: UACC-257 melanoma
[12] = system: SF-268 CNS
[13] = system: NCI-H23 lung
[14] = system: MOLT-4 leukemia
[15] = system: SN12C renal
[16] = system: NCI-H460 lung
[17] = system: RXF 393 renal
[18] = system: A498 renal
[19] = system: BT-549 breast
[20] = system: SF-539 CNS
[21] = system: K-562 leukemia
[22] = system: HCT-15 colon
[23] = system: CAKI-1 renal
[24] = system: OVCAR-8 ovarian
[25] = system: CCRF-CEM leukemia
[26] = system: 786-0 renal
[27] = system: ACHN renal
[28] = system: HCC-2998 colon
[29] = system: OVCAR-4 ovarian
[30] = system: NCI-H226 lung
[31] = system: HOP-92 NSCLC
[32] = system: RPMI-8226 leukemia
[33] = system: KM12 colon
[34] = system: TK-10 renal
[35] = system: MDA-MB-231 breast
[36] = system: SK-MEL-5 melanoma
[37] = system: COLO 205 colon
[38] = system: MCF7 breast
[39] = system: NCI-H522 lung
[40] = system: PC-3 prostate
[41] = system: LOX IMVI melanoma
[42] = system: SNB-19 CNS
[43] = system: M14 melanoma
[44] = system: SK-MEL-28 melanoma
[45] = system: OVCAR-3 ovarian
[46] = system: MALME-3M melanoma
[47] = system: OVCAR-5 ovarian
[48] = system: HL-60(TB) leukemia
[49] = system: SR leukemia
[50] = system: HCT-116 colon
[51] = system: SF-295 CNS
[52] = system: UACC-62 melanoma
[53] = system: A549 NSCLC
[54] = system: HS 578T breast
[55] = system: NCI/ADR-RES ovarian
[56] = system: T-47D breast
[57] = system: SK-MEL-2 melanoma

Work on `COc1ccc(C2=C(c3cn(C)c4ccccc34)C(=O)NC2=O)cc1` yielded a GI50 [1] of 1.97 µM, a TGI [1] greater than 25 µM and a GI50 [2] of 24.3 µM. The TGI [2] was greater than 25 µM, the GI50 [3] was greater than 25 µM and the TGI [3] was greater than 25 µM. The GI50 [4] was 9.43 µM, the TGI [4] was greater than 25 µM and the GI50 [5] was 1.56 µM. It also gave a TGI [5] greater than 14.7 µM, a GI50 [6] of 8.95 µM and a TGI [6] greater than 25 µM. The GI50 [7] was greater than 23.1 µM, the TGI [7] was greater than 25 µM and the GI50 [8] was greater than 23.7 µM. For the same compound, the TGI [8] was greater than 25 µM, the GI50 [9] was greater than 25 µM and the TGI [9] was greater than 25 µM. For the same compound, the GI50 [10] was greater than 23.6 µM, the TGI [10] was greater than 25 µM and the GI50 [11] was greater than 25 µM. It also gave a TGI [11] greater than 25 µM, a GI50 [12] greater than 20.9 µM and a TGI [12] greater than 25 µM. The GI50 [13] was greater than 25 µM, the TGI [13] was greater than 25 µM and the GI50 [14] was 15.5 µM. For the same compound, the TGI [14] was greater than 25 µM, the GI50 [15] was 24.5 µM and the TGI [15] was greater than 25 µM. It also gave a GI50 [16] of 11.1 µM, a TGI [16] greater than 25 µM and a GI50 [17] of 10.6 µM. It also gave a TGI [17] greater than 25 µM, a GI50 [18] of 6.74 µM and a TGI [18] greater than 25 µM. For the same compound, the GI50 [19] was greater than 25 µM, the TGI [19] was greater than 25 µM and the GI50 [20] was 9.76 µM. The TGI [20] was greater than 25 µM, the GI50 [21] was 3.89 µM and the TGI [21] was greater than 25 µM. The GI50 [22] was 6.05 µM, the TGI [22] was greater than 25 µM and the GI50 [23] was greater than 22.3 µM. The TGI [23] was greater than 25 µM, the GI50 [24] was greater than 25 µM and the TGI [24] was greater than 25 µM. It also gave a GI50 [25] of 16.3 µM, a TGI [25] greater than 25 µM and a GI50 [26] greater than 25 µM. It also gave a TGI [26] greater than 25 µM, a GI50 [27] greater than 25 µM and a TGI [27] greater than 25 µM. The GI50 [28] was greater than 23.1 µM, the TGI [28] was greater than 25 µM and the GI50 [29] was greater than 14.6 µM. It also gave a TGI [29] greater than 25 µM, a GI50 [30] greater than 22.3 µM and a TGI [30] greater than 25 µM. It also gave a GI50 [31] greater than 14.5 µM, a TGI [31] greater than 25 µM and a GI50 [32] greater than 20.3 µM. For the same compound, the TGI [32] was greater than 25 µM, the GI50 [33] was 8 µM and the TGI [33] was greater than 25 µM. The GI50 [34] was greater than 21 µM, the TGI [34] was greater than 25 µM and the GI50 [35] was greater than 25 µM. It also gave a TGI [35] greater than 25 µM, a GI50 [36] greater than 18.4 µM and a TGI [36] greater than 25 µM. The GI50 [37] was 10.7 µM, the TGI [37] was greater than 25 µM and the GI50 [38] was 8.03 µM. For the same compound, the TGI [38] was greater than 25 µM, the GI50 [39] was greater than 12.3 µM and the TGI [39] was greater than 25 µM. The GI50 [40] was greater than 21.9 µM, the TGI [40] was greater than 25 µM and the GI50 [41] was 24.9 µM. For the same compound, the TGI [41] was greater than 25 µM, the GI50 [42] was greater than 25 µM and the TGI [42] was greater than 25 µM. For the same compound, the GI50 [43] was 19.4 µM, the TGI [43] was greater than 25 µM and the GI50 [44] was greater than 23 µM. The TGI [44] was greater than 25 µM, the GI50 [45] was 17 µM and the TGI [45] was greater than 25 µM. For the same compound, the GI50 [46] was greater than 25 µM, the TGI [46] was greater than 25 µM and the GI50 [47] was greater than 25 µM. For the same compound, the TGI [47] was greater than 25 µM, the GI50 [48] was 14.5 µM and the TGI [48] was greater than 25 µM. The GI50 [49] was 6.14 µM, the TGI [49] was greater than 25 µM and the GI50 [50] was 12.7 µM. The TGI [50] was greater than 25 µM, the GI50 [51] was greater than 17 µM and the TGI [51] was greater than 25 µM. It also gave a GI50 [52] of 13 µM, a TGI [52] greater than 25 µM and a GI50 [53] of 14.1 µM. It also gave a TGI [53] greater than 25 µM, a GI50 [54] of 9.65 µM and a TGI [54] greater than 25 µM. The GI50 [55] was greater than 17.3 µM, the TGI [55] was greater than 25 µM and the GI50 [56] was greater than 24.1 µM. It also gave a TGI [56] greater than 25 µM, a GI50 [57] of 14.2 µM and a TGI [57] greater than 25 µM.
